Earlier results on one compound are cited in patent US20150224078A1, “Methods for the Treatment of Lung Diseases with Mast Cell Stabilizers” (Patara Pharma, LLC, priority 2014, published 2015).

Molecules are shown by their SMILES.

For this data set the following is noted: Richards et al, 1987.

As to `O=C(O)c1cc(=O)c2c(OCC(O)COc3cccc4oc(C(=O)O)cc(=O)c34)cccc2o1` [cromolyn sodium], the oral bioavailability entry is listed as “about 1%”.
